Counter-ions that a name gives are not always drawn.
How the values were obtained:
PDE IV, HL60 cells = experiment: Isolated enzyme, inhibition of PDE IV from HL60 cells; assay type: biochemical; conditions: 0.1 μM [3H]-cAMP, pH 7.5, 30° C.; "Ki PDEIV HL60 at 1 μM"; read-out: approximate Ki value (PDE IV HL60)
Description: 1. Isolated Enzyme The potency and selectivity of the compounds of the invention was determined using a battery of distinct PDE isoenzymes as follows: iv. PDE IV, HL60 cells. The enzymes were purified to kinetic homogeneity using standard chromatographic techniques. Phosphodiesterase activity was assayed as follows. The reaction was conducted in 150 μl of standard mixture containing (final concentrations): 50 mM TES-NaOH buffer (pH 7.5), 10 mM MgCl2, 0.1 μM [^3 H]-cAMP and vehicle or various concentrations of the test compounds. The reaction was initiated by addition of enzyme and conducted at 30° C. for between 5 to 30 mins. […] An aliquot of the sample was then applied to a column of neutral alumina and the […] eluted with 10 ml 0.1 TES-NaOH buffer (pH8). […] Recovery of [3H]-5'AMP was determined using the [^14 C]-5'AMP and all assays were conducted in the linear range of the reaction.

right atrial muscle = conditions: reference substances, general statement; cited from earlier work
papillary muscle = conditions: reference substances, general statement; cited from earlier work
[1] = used in asthma as a bronchodilator; cited from earlier work

SMILES	Ki (PDE IV, HL60 cells) [µM]	direct chronotropic effect (reference PDE inhibitors) (right atrial muscle)	direct inotropic effect (reference PDE inhibitors) (papillary muscle)	other results
COc1ccc(-c2cccc([N+](=O)[O-])c2)cc1OC1CCCC1 [Example 7, 2-Cyclopentyloxy-4-(3-nitrophenyl)anisole]	~0.25			
Cc1[nH]c(=O)c(C#N)cc1-c1ccncc1 [milrinone]		positive chronotropic and inotropic effects	positive chronotropic and inotropic effects	
COc1ccc(-c2cccnc2)cc1OC1CCCC1 [Example 4, 3-(3-Cyclopentyloxy-4-methoxyphenyl)pyridine hydrochloride]	~0.27			
COc1ccc(C2CNC(=O)C2)cc1OC1CCCC1 (centres unmarked) [rolipram]		do not have any direct effects	do not have any direct effects	
COc1ccc(-c2cncc3ccccc23)cc1OC1CCCC1 [Example 2, 4-(3-Cyclopentyloxy-4-methoxyphenyl)isoquinoline]	~0.18			
Cn1c(=O)c2[nH]cnc2n(C)c1=O [theophylline]				cardiovascular changes [1]: significant cardiovascular changes such as tachycardia

Source: patent US6080790A, “Tri-substituted phenyl derivatives and processes for their preparations” (priority 1992, dated 2000)
